Consider two substances from patent publication US20240424115A1, “LONG-ACTING INTERLEUKIN-15 RECEPTOR AGONISTS AND RELATED IMMUNOTHERAPEUTIC COMPOSITIONS AND METHODS” (Nektar Therapeutics, priority 2017, published 2024).

The target of one data set is IL-15Rα (Homo sapiens, UniProt Q13261). As to the kind of experiment: Receptor affinity for IL-15Rα by surface plasmon resonance (BIAcore). Type of data set: binding. The settings on record: for ka: IL-15Rα:Fc captured by anti-Fc. Here is the method: The affinities of IL-15 and exemplary long acting rIL-15 receptor agonists were measured using Surface Plasmon Resonance (“SPR”) using a BIAcore™ SPR system. Briefly, the surface of a Biacore CM5 sensor chip was activated using a 1:1 mixture of NHS: EDC to generate active NHS esters. Goat anti-human Fc antibody was covalently attached to the surface by injecting it for five minutes in 10 mM sodium acetate (pH 4). There were approximately 8000 RU of antibodies bound to the surface. Any remaining NHS ester was then quenched with ethanolamine.
At the initiation of each injection cycle, IL-15-Rα-Fc was captured on a sensor chip channel by a five-minute injection step in PBSP. Typically, 150-200 RU of receptors were bound on the surface.
Long acting rIL-15 receptor agonist test articles were diluted to 10 µM in PBS (containing 0.05% Tween 20 and 0.1 mg/ml BSA). A series of 3-fold dilutions were made and injected onto a sensor chip which was coated with IL-15Rα. The affinities were measured by determining the ka and kd rates separately, and the ratio between kd and ka was used to calculate the Kd values.
The affinities of exemplary long-acting IL-15 receptor agonists (test articles) for the IL-15 α receptor were measured and compared to IL-15. Affinity was measured by BIAcore using IL-15Rα:Fc captured by immobilized anti-Fc.
The test articles were diluted to 10 μM in PBS (containing 0.05% Tween 20 and 0.1 mg/ml BSA). A series of 3-fold dilutions were made and injected onto a sensor chip which was coated with IL-15Rα. The affinities were measured by determining the ka and kd rates separately, and the ratio between ka and kd was used to calculate the […] values.
In general terms: In SPR one partner is held on a chip, and binding of the other changes the refractive index at the surface.

Data set [1] in a line: Single dose PK study in mice (plasma concentration).
Procedure: C57BL/6 mice (n=3/group) were administered a single intravenous dose of IL-15 (control) at 0.3 mg/kg) or of Conjugate 2 at a dose of 0.3 mg/kg. Following administration, blood samples were collected at various time points post administration (24 hours, 48 hours, 78 hours, 96 hours). […] Finally, at each time point, plasma concentration of drug was determined.
For PK analysis, Conjugate 1 was administered as a single intravenous dose at 0.3 mg/kg in balb/c mice (n=3). Following administration, mice were humanely sacrificed and plasma was collected 24, 48, 72, 96, 120 and 144 hours post treatment. From a separate study, mice were administered a single intravenous dose of IL-15 (0.5 mg/kg). Samples from these mice were collected at the indicated time points within 6 hours of treatment.
Balb/c mice (n=3/group) were administered a single intravenous dose of IL-15 (500 ug/kg) or of Conjugate 1 at 10, 30, 100, 300 and 1000 μg/kg. Blood samples were collected at the indicated time points post administration (conjugate 1:24, 48, 72, 96, 120, 144, 240 hours; IL-15 control: 0.03, 0.08, 0.25, 0.5, 1, 2, 4, 6, 8, hours) and plasma concentration of drug was determined.
The subject of data set [2] is NK cells, CD8 T cells, CD4 T cells. Put plainly: In vivo PD study in mice: lymphocyte cell numbers, proliferation and activation. Also noted: species or system Balb/c mice. The text has this:
NK cells and their proliferation were defined using CD45+CD3-CD49b+ and CD45+CD3-CD49b+Ki67+ marker combinations. Following dosing, blood samples were acquired on the Fortessa flow cytometer running FACS DIVA software. Flowjo software was used for analysis and NK cell absolute values and Ki67% positivity within NK cells were plotted using Prism.
In mouse, four different maturation states of NK cells are defined by CD27 and CD11b expression. Once NK marker (CD49b+), natural activating NK receptor (NKp46+) and IL-15/IL-2RB (CD122+) triple positive cells were identified, immature (CD11b−CD27−), early (CD11b−CD27+), high effector (CD11b+CD27+) and terminal effector (CD11b+CD27−) NK cells were quantified by flow cytometry.
NK cells in various maturation states were quantified in mice receiving a single dose, or after the third dose of a q7dx3 schedule, of Conjugate 1 at 0.01, 0.03, 0.1, 0.3, 1.0, and 1.5 mg/kg as described above. Using flow cytometry, the NK population of interest was identified by CD49b, NKp46 and CD122 positivity. CD11b and CD27 were then used to further differentiate the NK population in immature (CD11b-CD27−), early NK (CD11b−CD27+), high effector (CD11b+CD27+) and terminal effector (CD11b+CD27−) subpopulations. Peripheral blood was run on the Fortessa flow cytometer and absolute values for each population were determined using counting beads during sample acquisition using BD FACS DIVA software. Flow cytometric analysis was conducted using Flowjo software and data plotted in Prism.
The surface expression of NKG2D was conducted using flow cytometric analysis of anti-NKG2D signal, expressed as mean fluorescence intensity (MFI) in NK cells. Similarly, the level of intracellular granzyme B was conducted using flow cytometry-based detection of anti-Granzyme B signal, also expressed as MFI in NK cells. Following detection of NKG2D and granzyme B signal using the Fortessa flow cytometer and FACS Diva software, analysis was conducted using Flowjo software. MFI values were plotted using Prism. […] Dose-dependent increases in both NK activation markers was observed following a single dose of Conjugate 1.
In mouse, CD8 T cells were defined as CD45+CD3+CD4−CD8+. Blood and spleen from mice were subject to immunophenotyping using the Fortessa flow cytometer and with analysis using Flowjo software. Absolute CD8 cell counts were plotted in Prism as shown in FIG. 14 (blood) and FIG. 24 (spleen). FIG. 14 and FIG. 24 illustrate the ability of Conjugate 1 to induce proliferation and a sustained increase in numbers of CD8 T-cells following a single i.v. administration in mice at each of the dosage amounts described above. The impact is most notable for the medium (0.1mg/kg, 0.3 mg/kg) and high (1.0 mg/kg, 1.5 mg/kg) dosage amounts.
In mouse, CD8 effector memory (Tem) and CD8 central memory (TCM) T cells were identified as CD45+CD3+CD4−CD8+CD44+CD62− and CD45+CD3+CD4−CD8+CD44+CD62L+. Proliferation of these memory populations was conducted using Ki-67 positivity. Following a single dose of Conjugate 1 or IL-15, blood and spleen were subject to immunophenotyping using the Fortessa flow cytometer, DIVA acquisition software and Flowjo analysis software. Graphs were plotted in Prism. […] Both effector and central memory populations proliferate in response to administration of Conjugate 1, an exemplary long acting IL-15 agonist.
NK-cell Granzyme B expression as a function of time was measured following treatment with Conjugate 1 at doses of 0.01 mg/kg, 0.03 mg/kg, 0.1 mg/kg, 0.3 mg/kg, 1 mg/kg, and 1.5 mg/kg. Whole blood was collected from 24 to 240 hours post-dose for immunophenotyping. Once red blood cells were lysed, white blood cells were labeled with viability dye and markers specific for CD45, CD3 and CD49b to identify live NK cells. Cells were then simultaneously fixed and permeabilized for intracellular Granzyme B staining. Stained blood was run on a Fortessa flow cytometer, acquired by DIVA software and analyzed using Flowjo software. […]

The nature of data set [3]: Single dose PK study in non-human primates (plasma concentration). Conditions: cynomolgus monkeys. Type of data set: in vivo. Here is the method: Cynomolgus monkeys (n=2, 1 male and 1 female), were administered a single intravenous dose of Conjugate 1 at 10, 50 and 100 μg/kg. IL-15 was administered as a single intravenous dose at 50 μg/kg as a control. Plasma concentration of drug was determined at the indicated time points post injection (0.03, 0.25, 1, 4, 12, 24, 48, 72, 96, 120, 144, 168 hours).

The mark [4] stands for this setting: balb/c mice, single i.v., Conjugate 1 0.3 mg/kg, IL-15 0.5 mg/kg (Example 16).
Where [5] appears, read: mice, blood, single dose 0.3 mg/kg.

Values joined by “and” are separate entries in the source; they are usually repeats but may differ in a detail not shown here. Identical values can stand only once. “Also recorded” adds a separate entry of the source. Like-named read-outs stand apart in the source and are kept apart here. Some results are limits rather than exact numbers.

Chain of IL-15Rα (Q13261 31-205 limits assumed): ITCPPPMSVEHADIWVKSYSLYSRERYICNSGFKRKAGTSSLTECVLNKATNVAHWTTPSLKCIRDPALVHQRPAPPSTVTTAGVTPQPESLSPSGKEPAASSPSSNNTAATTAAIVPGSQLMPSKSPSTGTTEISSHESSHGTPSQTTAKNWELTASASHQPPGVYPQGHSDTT

As a reminder, the Kd is the concentration at which binding is half-saturated. Substance “IL-15: recombinant human IL-15 from E. coli, SEQ ID NO: 1, non-glycosylated, 12.9 kDa; unconjugated comparator” registered a ka in the data set with IL-15Rα (Table 2A) of 578000 M⁻¹ s⁻¹. The “dissociation rate constant (kd)” value with IL-15Rα (Table 2A) worked out at 0.000149 s⁻¹. Moreover, the equilibrium dissociation constant (Kd) was determined as 0.258 nM in the data set with IL-15Rα (Table 2A, read-out: KD) and 0.258 nM with IL-15Rα (Table 2B, read-out: IL-15Rα KD). Further, the half-life result in data set [1] (setting [4]) is listed as “less than 1 hours”. For the same substance, the “plasma levels following administration” value in data set [1] (mice, single i.v. dose) is “rapid drop in plasma levels; also recorded: rapidly cleared”; in data set [3] (single i.v. 50 μg/kg), “rapidly cleared from the plasma”. Further, the “Ki67 and Granzyme B in CD49b cells, spleen” value in data set [2] (mice, single dose) is on record as “does not”.

Consider mono-mPEG-SBA40K-IL-15 [Conjugate 1], for which the ka with IL-15Rα (Table 2A) was 492000 M⁻¹ s⁻¹. Also, the “dissociation rate constant (kd)” value in the data set with IL-15Rα (Table 2A) turned out to be 0.000103 s⁻¹. Also, the Kd with IL-15Rα (Table 2A, read-out: KD) was 0.209 nM; with IL-15Rα (Table 2B, read-out: IL-15Rα KD), 0.201 nM and 0.209 nM. Also, the “alpha receptor affinity of IL-15 retained” value with IL-15Rα (compared to IL-15) is given as “about 80%”. The half-life result in data set [1] (Balb/c mice, single i.v. 10-1000 μg/kg (Example 23)) was “approximately 14 hours”; in data set [1] (setting [4]), “approximately 12 hours”; in data set [3] (single i.v. 100 μg/kg), “approximately 30 hours”. The “Granzyme B percent positivity in blood NK cells” value in data set [2] (Balb/c mice, 0.03 and 0.3 mg/kg (Example 18)) is “induced significant increases in NK Granzyme B expression”. Besides, the “CD4 T cell numbers and % Ki-67” value in data set [2] (Balb/c mice, single i.v. 0.03 or 0.3 mg/kg, compared to CD8 and NK cells) is “relatively small increase in numbers and % Ki-67 expression”. In addition, the “percent of NK cells positive for Granzyme B expression” value in data set [2] (mice, 0.01-1.5 mg/kg, 24 to 240 hours (Example 15)) was “increases NK-cell Granzyme B expression”. The “duration of increase in NK cell number” value in data set [2] (mice, all dose levels) is reported as “at least 96 hours”; in data set [2] (mice, medium and high dose levels) it was “at least 144 hours”. Moreover, the “duration of increase in % Ki67” value was “at least 120 hours” in data set [2] (mice, all dose levels, compared to vehicle); “at least 144 hours” in data set [2] (mice, medium dose ranges (0.1 mg/kg and 0.3 mg/kg)). For the same substance, the “increase in CD8 Tcm cell numbers” value in data set [2] (setting [5]) is given as 37.9 X; in data set [2] (mice, repeated dosing Q7dx3), 183 X. Further, the “increase in CD8 Tem cell numbers” value in data set [2] (setting [5]) is 14.5 X; in data set [2] (mice, repeated dosing Q7dx3) it was 73.8 X. In addition, the “increase in CD8 cell numbers” value in data set [2] (setting [5]) was found to be 6.4 X; in data set [2] (mice, repeated dosing Q7dx3), 35.3 X. Besides, in data set [2] (mice, i.v., Example 11), the “duration of increase of NK cells in all maturation sub-populations” value is given as “at least 120 hours”. For the same substance, the “Ki67 and Granzyme B in CD49b cells, spleen” value in data set [2] (mice, single dose) was “dose-dependent increase in both Ki67 and Granzyme B”. The “Ki-67 in effector and central memory CD8 T cells, blood” value in data set [2] (mice, single dose) was “dose-dependent increase in both effector and central memory CD8 T cells”. In addition, the “dose levels inducing a significant increase in total CD8 T cells in the blood” value in data set [2] (mice, single dose) is listed as at least 0.03 mg/kg. Also, the NK cell numbers result in data set [2] (mice, single dose 0.01 to 1.5 mg/kg) is recorded as “increase significantly above vehicle control at all dose levels”. Also, in data set [2] (mice, single dose 0.3-1.5 mg/kg), the “CD8 and CD8 memory T cell numbers at end of time course” value is listed as “did not return to baseline at 240 hours post injection”. Moreover, in data set [2] (mice, single i.v. 0.03, 0.3, 1 mg/kg vs vehicle), the “NKG2D and Granzyme B expression (MFI) by NK cells” value is “sustained increase in both NKG2D and Granzyme B”. Moreover, the “time increased CD8 cell numbers were maintained compared to vehicle” value in data set [2] (mice, single iv injection) is “at least 240 hours”.
